Here are results for 18 compounds from US20180148418A1, “AMIDO-SUBSTITUTED CYCLOHEXANE DERIVATIVES” (Bayer Pharma Aktiengesellschaft, priority 2015, published 2018).

A value given as a limit tells only on which side of the number the result lay.

The subject of experiment [1] is wildtype Wnt signaling cascade. Briefly: HEK293 TOP assay (Super TopFlash luciferase reporter, Wnt-3a stimulated). The format is cell-based. To be noted: Homo sapiens, HEK293, 16 h, HEK293 TOP reporter cells, Wnt3a at EC50, 16 hours. In outline: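 Compound series (50 μM down to 15 nM, 3.16-fold) diluted from DMSO 50-fold into CAFTY buffer, pH 7.4, 2 mM Ca^2+, 0.01% BSA, applied to Wnt-3a-stimulated HEK293 TopFlash and FOP reporter lines in parallel. Cells seeded 10000/well 24 h before; luciferase signal measured.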
In general terms: Reporter assays use an easily measured gene product as a stand-in for the process of interest.

Experiment [2] deals with HEK293 cells cotransfected with the FOP control vector. The experiment is described as follows: HEK293 FOP assay (control reporter with non-functional TCF elements). The class given is cell-based. To be noted: Homo sapiens, 16 hours. The method in brief:
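Compound series from 50 μM down to 15 nM, prediluted in DMSO then 50-fold into CAFTY buffer (pH 7.4, 2 mM Ca2+, 0.01% BSA), tested alongside TOP cells on a Geneticin-selected HEK293 FOP line whose TCF elements are replaced by a random sequence; recombinant human Wnt-3a applied at 2500-5 ng/ml.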

Another experiment deals with T1, TNKS2 (Homo sapiens, UniProt Q9H2K2).
T1 construct: purchased BPS Bioscience, San Diego, USA 80572 (TNKS2 Histone Ribosylation Assay Kit)
T1 sequence (Q9H2K2 1-1166): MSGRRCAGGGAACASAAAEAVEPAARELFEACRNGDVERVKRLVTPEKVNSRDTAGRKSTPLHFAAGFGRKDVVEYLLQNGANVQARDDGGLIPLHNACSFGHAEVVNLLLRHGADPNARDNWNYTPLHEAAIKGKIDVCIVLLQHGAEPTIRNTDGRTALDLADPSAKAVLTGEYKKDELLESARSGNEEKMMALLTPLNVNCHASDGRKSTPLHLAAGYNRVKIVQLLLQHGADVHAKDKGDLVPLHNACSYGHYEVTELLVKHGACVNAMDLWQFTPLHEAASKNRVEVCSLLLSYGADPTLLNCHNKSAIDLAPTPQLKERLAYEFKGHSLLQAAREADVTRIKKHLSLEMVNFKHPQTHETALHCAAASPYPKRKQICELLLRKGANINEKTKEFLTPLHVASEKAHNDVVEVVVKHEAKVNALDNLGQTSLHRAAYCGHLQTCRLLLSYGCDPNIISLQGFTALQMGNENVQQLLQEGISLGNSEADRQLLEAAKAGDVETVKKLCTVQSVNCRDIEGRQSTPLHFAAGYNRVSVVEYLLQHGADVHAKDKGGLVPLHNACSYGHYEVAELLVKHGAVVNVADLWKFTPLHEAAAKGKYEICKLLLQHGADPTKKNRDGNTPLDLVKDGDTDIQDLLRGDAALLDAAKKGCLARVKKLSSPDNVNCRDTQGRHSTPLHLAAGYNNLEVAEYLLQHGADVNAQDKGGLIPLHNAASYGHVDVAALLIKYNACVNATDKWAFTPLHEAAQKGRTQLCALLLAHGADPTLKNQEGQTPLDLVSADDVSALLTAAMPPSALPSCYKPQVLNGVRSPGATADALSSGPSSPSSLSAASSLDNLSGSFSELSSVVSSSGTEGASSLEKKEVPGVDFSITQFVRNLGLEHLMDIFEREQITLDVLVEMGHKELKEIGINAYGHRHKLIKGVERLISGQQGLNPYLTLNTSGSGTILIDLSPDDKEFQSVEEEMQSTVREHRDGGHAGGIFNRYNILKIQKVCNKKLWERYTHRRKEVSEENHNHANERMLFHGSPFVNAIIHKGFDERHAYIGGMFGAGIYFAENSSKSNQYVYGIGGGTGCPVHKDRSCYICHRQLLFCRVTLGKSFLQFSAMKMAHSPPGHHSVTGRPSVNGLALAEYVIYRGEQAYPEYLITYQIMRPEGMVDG
The experiment is described as follows: TNKS2 Assay B (auto-parsylation, [3H]-NAD+ SPA). The class given is biochemical. The following applies: 6 nM TNKS2, auto-parsylation, over night at room temperature.

In the case of `COC(=O)c1cc(C)nc2c(C(=O)N[C@H]3CC[C@H](C(=O)Nc4ccc(F)cc4Cl)CC3)cnn12` [Example 352, methyl 3-({trans-4-[(2-chloro-4-fluorophenyl)carbamoyl]cyclohexyl}carbamoyl)-5-methylpyrazolo[1,5-a]pyrimidine-7-carboxylate], the IC50 – broadly, the concentration needed to halve the response being measured – in experiment [1] is 7500 nM; in experiment [2], not below 50000 nM; on TNKS2, 120 nM.
Taken in the same sequence, the figures for `O=C(NC[C@H]1CCCO1)c1nc[nH]c1C(=O)N[C@H]1CC[C@H](C(=O)Nc2c(F)cc(F)cc2Cl)CC1` [Example 70, N^5-{trans-4-[(2-chloro-4,6-difluorophenyl)carbamoyl]cyclohexyl}-N^4-[(2R)-tetrahydrofuran-2-ylmethyl]-1H-imidazole-4,5-dicarboxamide] were 220 nM, 29000 nM and 76 nM.
Take `COc1ccc2ncc(C(=O)N[C@H]3CC[C@H](C(=O)Nc4ccc(F)cc4Cl)CC3)n2n1` [Example 50, N-{trans-4-[(2-chloro-4-fluorophenyl)carbamoyl]cyclohexyl}-6-methoxyimidazo[1,2-b]pyridazine-3-carboxamide]: the results for the IC50 (in experiment [1]; in experiment [2]; at TNKS2) were 350 nM, not below 50000 nM and 170 nM, respectively.
For `CNc1ccc2ncc(C(=O)N[C@H]3CC[C@H](C(=O)Nc4ccc(F)cc4Cl)CC3)n2n1` [Example 53, N-{trans-4-[(2-chloro-4-fluorophenyl)carbamoyl]cyclohexyl}-6-(methylamino)imidazo[1,2-b]pyridazine-3-carboxamide] the same measures were 400 nM, not below 50000 nM and 47 nM.
For `CN1CCN(c2ccc3ncc(C(=O)N[C@H]4CC[C@H](C(=O)Nc5ccc(F)cc5Cl)CC4)n3n2)CC1` [Example 49, N-{trans-4-[(2-chloro-4-fluorophenyl)carbamoyl]cyclohexyl}-6-(4-methylpiperazin-1-yl)imidazo[1,2-b]pyridazine-3-carboxamide] the same measures were 680 nM, 32000 nM and 130 nM.
For `Cc1cc(N2CC[C@]3(CC[C@@H](NC(=O)c4[nH]cnc4C(=O)NCC(F)(F)F)CC3)C2=O)c(Cl)cc1F` [Example 297, N^5-[(trans)-2-(2-chloro-4-fluoro-5-methylphenyl)-1-oxo-2-azaspiro[4.5]dec-8-yl]-N^4-(2,2,2-trifluoroethyl)-1H-imidazole-4,5-dicarboxamide] the same measures were 6.9 nM, 9300 nM and 7.6 nM.
In the case of `O=C(N[C@H]1CC[C@H](C(=O)Nc2ccc(F)cc2Cl)CC1)c1cnc2ccc(Cl)nn12` [Example 47, 6-chloro-N-{trans-4-[(2-chloro-4-fluorophenyl)carbamoyl]cyclohexyl}imidazo[1,2-b]pyridazine-3-carboxamide], the IC50 in experiment [1] stood at 390 nM; in experiment [2], 16000 nM; against TNKS2 it was 420 nM.
Taken in the same sequence, the figures for `CNC(=O)c1[nH]cnc1C(=O)N[C@@H]1CC[C@@H](C(=O)Nc2ccc(F)cc2Cl)C[C@H]1OC` (racemic) [Example 35, N^4-{(1α,2β,4β)-4-[(2-chloro-4-fluorophenyl)carbamoyl]-2-methoxycyclohexyl}-N^5-methyl-1H-imidazole-4,5-dicarboxamide] were 17000 nM, not below 50000 nM and more than 10000 nM.
Taken in the same sequence, the figures for `COC(C)(C)CNC(=O)c1nc[nH]c1C(=O)N[C@H]1CC[C@H](C(=O)Nc2cc(F)c(F)cc2Cl)CC1` [Example 85, N^5-{trans-4-[(2-chloro-4,5-difluorophenyl)carbamoyl]cyclohexyl}-N^4-(2-methoxy-2-methylpropyl)-1H-imidazole-4,5-dicarboxamide] were 130 nM, 24000 nM and 23 nM.
`CN(C)c1ccc2ncc(C(=O)N[C@H]3CC[C@H](C(=O)Nc4ccc(F)cc4Cl)CC3)n2n1` [Example 52, N-{trans-4-[(2-chloro-4-fluorophenyl)carbamoyl]cyclohexyl}-6-(dimethylamino)imidazo[1,2-b]pyridazine-3-carboxamide]: the IC50 in experiment [1] amounted to 150 nM; in experiment [2] it was 40000 nM; against TNKS2, 11 nM.
For `COC[C@H](C)NC(=O)c1nc[nH]c1C(=O)N[C@H]1CC[C@H](C(=O)Nc2c(F)cc(F)cc2Cl)CC1` [Example 66, N^5-{trans-4-[(2-chloro-4,6-difluorophenyl)carbamoyl]cyclohexyl}-N^4-[(2S)-1-methoxypropan-2-yl]-1H-imidazole-4,5-dicarboxamide] the same measures were 250 nM, not below 50000 nM and 280 nM.
Consider `Cc1cc(C)n2ncc(C(=O)NC3CCC(C(=O)Nc4ccc(F)cc4Cl)CC3C)c2n1` (stereo not drawn) [Example 42, N-{4-[(2-chloro-4-fluorophenyl)carbamoyl]-2-methylcyclohexyl}-5,7-dimethylpyrazolo[1,5-a]pyrimidine-3-carboxamide], for which the results for the IC50 (in experiment [1]; in experiment [2]; against TNKS2) were 120 nM, not below 50000 nM and 120 nM, respectively.
Regarding `Cc1cc(N2CCC[C@]3(CC[C@@H](NC(=O)c4cnc5cccnn45)CC3)C2=O)c(Cl)cc1F` [Example 301, N-[(trans)-2-(2-chloro-4-fluoro-5-methylphenyl)-1-oxo-2-azaspiro[5.5]undec-9-yl]imidazo[1,2-b]pyridazine-3-carboxamide], the figures for the half-maximal inhibitory concentration (IC50) (in experiment [1]; in experiment [2]; at TNKS2) were 28 nM, not below 500 nM and 80 nM, respectively.
Turning to `O=C(NCCN1CC2(CCO2)C1)c1nc[nH]c1C(=O)N[C@H]1CC[C@H](C(=O)Nc2ccc(F)cc2Cl)CC1` [Example 25, N^5-{trans-4-[(2-chloro-4-fluorophenyl)carbamoyl]cyclohexyl}-N^4-[2-(1-oxa-6-azaspiro[3.3]hept-6-yl)ethyl]-1H-imidazole-4,5-dicarboxamide], the IC50 in experiment [1] is 63 nM; in experiment [2], not below 50000 nM; against TNKS2 it was 11 nM.
On to `CNC(=O)c1ncoc1C(=O)N[C@H]1CC[C@H](C(=O)Nc2ccc(F)cc2Cl)CC1` [Example 29, N^5-{trans-4-[(2-chloro-4-fluorophenyl)carbamoyl]cyclohexyl}-N^4-methyl-1,3-oxazole-4,5-dicarboxamide], for which the IC50 in experiment [1] was 930 nM; in experiment [2], not below 50000 nM; on TNKS2, 590 nM.
Taken in the same sequence, the figures for `Cc1cc(C2CC2)nc2c(C(=O)N[C@H]3CC[C@H](C(=O)Nc4ccc(F)cc4Cl)CC3)cnn12` [Example 62, N-{trans-4-[(2-chloro-4-fluorophenyl)carbamoyl]cyclohexyl}-5-cyclopropyl-7-methylpyrazolo[1,5-a]pyrimidine-3-carboxamide] were 12000 nM, not below 50000 nM and 2000 nM.
For `CC(C)NCCNC(=O)c1nc[nH]c1C(=O)N[C@H]1CC[C@H](C(=O)Nc2ccc(F)cc2Cl)CC1` [Example 77, N^5-{trans-4-[(2-chloro-4-fluorophenyl)carbamoyl]cyclohexyl}-N^4-[2-(isopropylamino)ethyl]-1H-imidazole-4,5-dicarboxamide] the same measures were 270 nM, not below 50000 nM and 60 nM.
Regarding `COCCNC(=O)c1nc[nH]c1C(=O)N[C@H]1CC[C@@]2(CCN(c3cc(C)c(F)cc3Cl)C2=O)CC1` [Example 334, N^5-[(trans)-2-(2-chloro-4-fluoro-5-methylphenyl)-1-oxo-2-azaspiro[4.5]dec-8-yl]-N^4-(2-methoxyethyl)-1H-imidazole-4,5-dicarboxamide], the IC50 in experiment [1] was 9.5 nM; in experiment [2], not below 50000 nM; at TNKS2 it was 4.9 nM.
